Source: ChEMBL document CHEMBL3875183, “Structure guided design of a series of selective pyrrolopyrimidinone MARK inhibitors” (Bioorg Med Chem Lett, 2017)

Key:
[1] = Lipophilicity, logD of the compound; type: physicochemical; conditions: octanol/water
[2] = Volume of distribution in dog; type: ADME, Canis lupus familiaris; conditions: in vivo
[3] = Clearance in rat plasma; type: ADME, cell-free
[4] = Volume of distribution in rat; type: ADME; conditions: in vivo
[5] = Half life in human liver microsomes; type: ADME
[6] = Half life in rat liver microsomes; type: ADME
[7] = Clearance in dog plasma; type: ADME, cell-free, Canis lupus familiaris
[8] = Half life in rat; type: ADME; conditions: in vivo
[9] = Half life in dog; type: ADME, Canis lupus familiaris; conditions: in vivo
[10] = test system: MDR1 (human MDR1 or rat MDR1a); experiment: Apparent permeability of the compound in pig LLC-PK1 cells expressing human MDR1 or rat MDR1a; type: ADME, cell-based, Sus scrofa

A logD [1] of 2.92, a Vd [2] of 4 L/kg and a clearance [3] of 341 mL/min/kg were found for `CC1(C)C(=O)N([C@H]2CCc3c(O)cccc32)c2nc(Nc3ccccc3)ncc21` in this work. The Vd [4] was 16.2 L/kg, the half-life [5] was 10 min and the half-life [6] was 9 min. The clearance [7] was 68 mL/min/kg, the half-life [8] was 48 min and the half-life [9] was 48 min.

A Papp [10] of 12 ×10⁻⁶ cm/s was found for `CC1(C)C(=O)N(C2CCCCC2)c2nc(Nc3ccccc3)ncc21` in this work.
